System: hepatocytes
Test: Seq-Well scRNA-Seq of hepatocytes after APAP overdose (signature scores, DEG vs untreated)
Format: in vivo, mouse
Conditions: A6

CC(=O)Nc1ccc(O)cc1 [APAP, acetaminophen]
2-Mar pct.1: 0.611 | 2010003K11Rik pct.1: 0.396 | 2810007J24Rik pct.1: 0.675 | 8430408G22Rik pct.1: 0.041 | Aadac pct.1: 0.673 | Aass pct.1: 0.747 | Abca1 pct.1: 0.604 | Abhd2 pct.1: 0.37 | Acaa1b pct.1: 0.752 | Adck3 pct.1: 0.363 | Adh1 pct.1: 0.74 | Adh4 pct.1: 0.165 | Agpat9 pct.1: 0.277 | Akr1c6 pct.1: 0.675 | Akr1c20 pct.1: 0.248 | Alb pct.1: 1 | Aldh1a1 pct.1: 0.862 | Aldh3a2 pct.1: 0.064 | Aldh8a1 pct.1: 0.418 | Ang pct.1: 0.315 | Apoa2 pct.1: 0.993 | Apoa4 pct.1: 0.721 | Apob pct.1: 0.99 | Apoc1 pct.1: 0.962 | Apoc3 pct.1: 0.869 | Apoe pct.1: 1 | Apol7a pct.1: 0.072 | Arhgef12 pct.1: 0.578 | Arl4d pct.1: 0.112 | Asl pct.1: 0.826 | Atp2a2 pct.1: 0.616 | Atp5e pct.1: 0.506 | Atp5h pct.1: 0.377 | B4galt5 pct.1: 0.332 | Bach1 pct.1: 0.461 | Bcl2l1 pct.1: 0.501 | Btg2 pct.1: 0.549 | C8g pct.1: 0.673 | C230081A13Rik pct.1: 0.279 | Car3 pct.1: 0.854 | Ccl6 pct.1: 0.274 | Cd5l pct.1: 0.21 | Cd14 pct.1: 0.153 | Cd302 pct.1: 0.649 | Cdkn1a pct.1: 0.702 | Cers6 pct.1: 0.332 | Ces3a pct.1: 0.831 | Chchd2 pct.1: 0.718 | Chka pct.1: 0.716 | Cidec pct.1: 0.253 | Clec4f pct.1: 0.339 | Clqb pct.1: 0.234 | Cltc pct.1: 0.661 | Cml1 pct.1: 0.475 | Cox4i1 pct.1: 0.869 | Cox6c pct.1: 0.558 | Cox7a2 pct.1: 0.456 | Cox7b pct.1: 0.632 | Creb3l2 pct.1: 0.329 | Ctsl pct.1: 0.878 | Ctss pct.1: 0.212 | Cxadr pct.1: 0.606 | Cyb5 pct.1: 0.916 | Cyp4a14 pct.1: 0.776 | D10Wsu102e pct.1: 0.37 | Dbi pct.1: 0.819 | Ddt pct.1: 0.539 | Ddx3x pct.1: 0.692 | Ddx5 pct.1: 0.685 | Dusp5 pct.1: 0.196 | Dusp6 pct.1: 0.482 | Efhd2 pct.1: 0.468 | Eif1a pct.1: 0.599 | Eif4g2 pct.1: 0.757 | Epas1 pct.1: 0.604 | Etf1 pct.1: 0.606 | Ets2 pct.1: 0.415 | Fabp1 pct.1: 0.971 | Fabp2 pct.1: 0.315 | Fam134b pct.1: 0.678 | Fdx1 pct.1: 0.305 | Fga pct.1: 0.986 | Fgb pct.1: 0.995 | Fgg pct.1: 0.986 | Fkbp5 pct.1: 0.415 | Fxyd5 pct.1: 0.138 | G6pc pct.1: 0.313 | Gamt pct.1: 0.277 | Gclc pct.1: 0.962 | Gcnt2 pct.1: 0.372 | Gjb2 pct.1: 0.678 | Glyat pct.1: 0.468 | Gm13775 pct.1: 0.284 | Gm15564 pct.1: 0.983 | Gm24601 pct.1: 0.241 | Gm26924 pct.1: 1 | Gn13 pct.1: 0.501 | Gpt2 pct.1: 0.764 | Gpx1 pct.1: 0.969 | Grn pct.1: 0.582 | Gsta1 pct.1: 0.32 | Gulo pct.1: 0.076 | H3f3b pct.1: 0.613 | Haao pct.1: 0.621 | Hacl1 pct.1: 0.489 | Hagh pct.1: 0.573 | Hba-a1 pct.1: 0.165 | Hba-a2 pct.1: 0.131 | Hbb-bs pct.1: 0.537 | Hbb-bt pct.1: 0.246 | Hebp1 pct.1: 0.43 | Hes6 pct.1: 0.076 | Hgd pct.1: 0.511 | Hif1a pct.1: 0.427 | Hilpda pct.1: 0.403 | Hint1 pct.1: 0.57 | Hmox1 pct.1: 0.558 | Hnf4a pct.1: 0.835 | Hpd pct.1: 0.883 | Hsd3b5 pct.1: 0.062 | Hsd17b13 pct.1: 0.864 | Hspb8 pct.1: 0.709 | Iigp1 pct.1: 0.78 | Il1b pct.1: 0.236 | Il1r1 pct.1: 0.683 | Insig2 pct.1: 0.854 | Itih2 pct.1: 0.893 | Jak1 pct.1: 0.554 | Jmjd1c pct.1: 0.47 | Klf6 pct.1: 0.382 | Krt8 pct.1: 0.826 | Krt18 pct.1: 0.864 | Lactb2 pct.1: 0.47 | Lars2 pct.1: 1 | Lifr pct.1: 0.389 | Lpgat1 pct.1: 0.618 | Lpin2 pct.1: 0.745 | Lrg1 pct.1: 0.783 | Lrrc58 pct.1: 0.711 | Lyz2 pct.1: 0.234 | Man2a1 pct.1: 0.671 | Mat1a pct.1: 0.986 | Mbl1 pct.1: 0.382 | Mcm10 pct.1: 0.079 | Mfsd2a pct.1: 0.465 | Mgst1 pct.1: 0.938 | Mmp8 pct.1: 0.136 | Mrap pct.1: 0.606 | Msrb1 pct.1: 0.558 | Mt1 pct.1: 0.981 | Mt2 pct.1: 0.938 | Mthfd2 pct.1: 0.205 | Mup3 pct.1: 1 | Mup4 pct.1: 0.621 | Mup5 pct.1: 0.475 | Mup6 pct.1: 0.706 | Mup7 pct.1: 0.831 | Mup9 pct.1: 0.489 | Mup11 pct.1: 0.511 | Mup12 pct.1: 0.32 | Mup15 pct.1: 0.076 | Mup16 pct.1: 0.334 | Mup17 pct.1: 0.871 | Mup18 pct.1: 0.728 | Mup19 pct.1: 0.759 | Mup21 pct.1: 0.58 | Myh9 pct.1: 0.718 | Myo1e pct.1: 0.475 | Ndufa4 pct.1: 0.656 | Ndufa6 pct.1: 0.506 | Nid1 pct.1: 0.229 | Nop58 pct.1: 0.492 | Nudt7 pct.1: 0.279 | Oaf pct.1: 0.437 | Oat pct.1: 0.05 | Pah pct.1: 0.687 | Pcbd1 pct.1: 0.535 | Pck1 pct.1: 0.814 | Phlda1 pct.1: 0.494 | Picalm pct.1: 0.647 | Plin2 pct.1: 0.943 | Plscr1 pct.1: 0.329 | Pon1 pct.1: 0.685 | Ppib pct.1: 0.463 | Ppl pct.1: 0.47 | Ppm1k pct.1: 0.15 | Prdx1 pct.1: 0.742 | Psat1 pct.1: 0.229 | Psen2 pct.1: 0.384 | Ptprc pct.1: 0.153 | Ranbp2 pct.1: 0.566 | Rarres2 pct.1: 0.678 | Rcan1 pct.1: 0.425 | Rdh7 pct.1: 0.862 | Rell1 pct.1: 0.375 | Retnlg pct.1: 0.129 | Retsat pct.1: 0.845 | Rnase4 pct.1: 0.563 | Rock2 pct.1: 0.425 | Rora pct.1: 0.549 | Rps27l pct.1: 0.484 | S100a8 pct.1: 0.353

Reference: patent publication US20230053540A1, “TREATMENT OF LIVER INJURY” (Massachusetts Institute of Technology, priority 2019, published 2023)
